Experimental findings from patent US20190092761A1, “Methods and Compositions for Inhibition of Bromodomain and Extratermial Proteins” (Convergene LLC, priority 2014, published 2019) are described below.

Each structure is given as a SMILES string. Where only a bound is given, the exact number is not on record here.

This assay concerns the target T1, BRD4 bromodomains (Homo sapiens, UniProt O60885).
T1 construct: fused on or other part: T7 phage capsid protein (fusion for phage display)
Nature of the assay: BROMOscan bromodomain binding assay. Conditions: Kd classes; BRD4 bromodomains displayed on T7 phage, competition with acetylated peptide ligand, 11 concentrations 0 to 10 μM; read-out: BROMOscan Relative Activity. The method, then:
Bromodomain assays were conducted to measure interactions between certain compounds and bromodomains. In order to measure compounds' direct activity against BRD4, dissociation constants ([…]) of the bromodomain inhibitors of the present invention were obtained using a biophysical binding assay, BROMOscan℠ (DiscoveRx, San Diego, Calif.), a modified phage-display system originally developed for kinases (Nat Biotechnol. 2005 March; 23(3):329-36).
The assays were conducted according to BROMOscan protocol from Discover Rx. Briefly, BRD4 bromodomains expressed as a fusion capsid protein of T7 phage were bound to acetylated peptide ligand on a solid phase and competition bindings were performed. T7 phage strains displaying bromodomains were grown in parallel in 24-well blocks in an E. coli host derived from the BL21 strain. E. coli were grown to log-phase and infected with T7 phage from a frozen stock (multiplicity of infection=0.4) and incubated with shaking at 32° C. until lysis (90-150 minutes). The lysates were centrifuged (5,000×g) and filtered (0.2 μm) to remove cell debris. Streptavidin-coated magnetic beads were treated with biotinylated small molecule or acetylated peptide ligands for 30 minutes at room temperature to generate affinity resins for bromodomain assays. The liganded beads were blocked with excess biotin and washed with blocking buffer (SeaBlock (Pierce), 1% BSA, 0.05% Tween 20, 1 mM DTT) to remove unbound ligand and to reduce non-specific phage binding. Binding reactions were assembled by combining bromodomains, liganded affinity beads, and test compounds in 1× binding buffer (17% SeaBlock, 0.33×PBS, 0.04% Tween 20, 0.02% BSA, 0.004% Sodium azide, 7.4 mM DTT). Test compounds were prepared as 1000× stocks in 100% DMSO and subsequently diluted 1:10 in monoethylene glycol (MEG) to create stocks at 100× the screening concentration (resulting stock solution is 10% DMSO/90% MEG). The compounds were then diluted directly into the assays such that the final concentration of DMSO and MEG were 0.1% and 0.9%, respectively. All reactions were performed in polystyrene 96-well plates in a final volume of 0.135 ml. The assay plates were incubated at room temperature with shaking for 1 hour and the affinity beads were washed with wash buffer (1×PBS, 0.05% Tween 20). The beads were then re-suspended in elution buffer (1×PBS, 0.05% Tween 20, 2 μM non-biotinylated affinity ligand) and incubated at room temperature with shaking for 30 minutes. The bromodomain concentration in the eluates was measured by qPCR. Data was collected at 11 compound concentrations ranging from 0 to 10 μM. Kd values were then derived from a standard dose-response curve generated with Hill equation (Hill Slope was set to −1) and a non-linear least square fit with the Levenberg-Marquardt algorithm.
Response=Background+Signal−Background/1+(Kd Hill Slope/Dose Hill Slope)
Data is reported in Table 3 as Relative Activity, wherein a Kd of less than 100 nM is denoted by (+++), a Kd of between 100 nM and 1 μM is denoted by (++), and a Kd of 1 μM to greater than 10 μM is denoted by (+).
Consider `Cc1noc(C)c1-c1ccc2[nH]c(=O)cc(NCc3ccc(-c4ccccc4)cc3)c2c1` [Example 140], for which the Kd lay within 100 to 1000 nM.
For `CC(=O)N(Nc1cc(=O)[nH]c2ccc(-c3c(C)noc3C)cc12)c1ccccc1` [Example 7], the Kd was < 100 nM.
In the case of `O=c1cc(NCc2cccc(Cl)c2)c2cc(-c3cccnc3)ccc2[nH]1` [Example 163, 4-(3-chlorobenzylamino)-6-(pyridin-3-yl)quinolin-2(1H)-one], the Kd is < 100 nM.
In the case of `Cc1noc(C)c1-c1ccc2[nH]c(=O)cc(NCC3CCCCC3)c2c1` [Example 144], the Kd fell in the range of 100 to 1000 nM.
Turning to `Cc1noc(C)c1-c1ccc2[nH]c(=O)cc(NN(CC(=O)O)c3ccccc3)c2c1` [Example 6], the Kd is < 100 nM.
`Cc1noc(C)c1-c1ccc2[nH]c(=O)cc(NN3CCc4ccccc4C3)c2c1` [Example 1]: the Kd was < 100 nM.
Take `Cc1noc(C)c1-c1cc2c(NCc3ccccc3)cc(=O)[nH]c2cc1C(=O)N(C)C` [Example 160, 4-(benzylamino)-6-(3,5-dimethylisoxazol-4-yl)-N,N-dimethyl-2-oxo-1,2-dihydroquinoline-7-carboxamide]: the Kd is < 100 nM.
As for `Cc1noc(C)c1-c1cc2c(NCc3ccccc3)cc(=O)[nH]c2cc1C(N)=O` [Example 161, 4-(benzylamino)-6-(3,5-dimethylisoxazol-4-yl)-2-oxo-1,2-dihydroquinoline-7-carboxamide], the figure is < 100 nM.
`Cc1noc(C)c1-c1ccc2[nH]c(=O)cc(NCc3cccc(C(F)(F)F)c3)c2c1` [Example 120]: the Kd fell in the range of 100 to 1000 nM.
For the molecule `Cc1noc(C)c1-c1ccc2[nH]c(=O)cc(N[C@H](C)c3ccccc3)c2c1` [Example 173], the Kd is < 100 nM.
Regarding `Cn1cc(-c2ccc3[nH]c(=O)cc(NCc4cccc(Cl)c4)c3c2)cn1` [Example 167, 4-(3-chlorobenzylamino)-6-(1-methyl-1H-pyrazol-4-yl)quinolin-2(1H)-one], the Kd is < 100 nM.
With `Cc1noc(C)c1-c1cc2[nH]c(=O)c(C)c(NNc3ccccc3Cl)c2cc1-c1c(C)noc1C` [Example 60], the Kd is < 100 nM.
For the molecule `Cc1noc(C)c1-c1ccc2[nH]c(=O)cc(NCc3ccccc3F)c2c1` [Example 172], the Kd was < 100 nM.
On to `Cc1noc(C)c1-c1ccc2[nH]c(=O)cc(NCc3cccc(Br)c3)c2c1` [Example 112], for which the Kd is < 100 nM.
As for `Cc1noc(C)c1-c1cc2[nH]c(=O)cc(NCc3ccccc3)c2cc1-c1c(C)noc1C` [Example 162, 4-(benzylamino)-6,7-bis(3,5-dimethylisoxazol-4-yl)quinolin-2(1H)-one], the Kd is < 100 nM.
For `COc1cccc(CNc2cc(=O)[nH]c3ccc(-c4c(C)noc4C)cc23)c1` [Example 116] the value was < 100 nM; for `COc1ncccc1-c1ccc2[nH]c(=O)cc(NCc3cccc(Cl)c3)c2c1` [Example 165, 4-(3-chlorobenzylamino)-6-(2-methoxypyridin-3-yl)quinolin-2(1H)-one], > 1000 nM.
On to `Cc1noc(C)c1-c1ccc2[nH]c(=O)cc(NCc3ccccc3)c2c1` [Example 170, 4-(benzylamino)-6-(3,5-dimethylisoxazol-4-yl)quinolin-2(1H)-one], for which the Kd is < 100 nM.
As to `Cc1noc(C)c1-c1ccc2[nH]c(=O)cc(NCc3cccc(Cl)c3)c2c1` [Example 108], the Kd is < 100 nM.
Regarding `O=c1cc(NCc2cccc(Cl)c2)c2cc(-c3ccncc3)ccc2[nH]1` [Example 166], the Kd is < 100 nM.
As for `Cc1noc(C)c1-c1ccc2[nH]c(=O)cc(NCc3ccc(Cl)cc3Cl)c2c1` [Example 128], the figure is 100 to 1000 nM; as for `COc1cncc(-c2ccc3[nH]c(=O)cc(NCc4cccc(Cl)c4)c3c2)c1` [Example 164, 4-(3-chlorobenzylamino)-6-(5-methoxypyridin-3-yl)quinolin-2(1H)-one], < 100 nM; as for `Cc1noc(C)c1-c1ccc2[nH]c(=O)cc(NCc3cccnc3)c2c1` [Example 175], 100 to 1000 nM.
For `COc1ccccc1CNc1cc(=O)[nH]c2ccc(-c3c(C)noc3C)cc12` [Example 171], the Kd is < 100 nM.
For `Cc1noc(C)c1-c1ccc2[nH]c(=O)cc(NCc3ccc(Cl)cc3)c2c1` [Example 132] the value was 100 to 1000 nM; for `Cc1noc(C)c1-c1ccc2[nH]c(=O)cc(NN(C)c3ccccc3)c2c1` [Example 5, 6-(3,5-dimethylisoxazol-4-yl)-4-(2-methyl-2-phenylhydrazinyl)-quinolin-2(1H)-one], < 100 nM.
In the case of `Cc1noc(C)c1-c1ccc2[nH]c(=O)cc(NCc3cc(Cl)cc(Cl)c3)c2c1` [Example 124], the Kd is 100 to 1000 nM.
